# In US20060069132A1, “Azolecarboxamide herbicides” (priority 2004, published 2006):
# Tests used:
# Experiment in all cases: Test J Compounds 2 and 6 alone and in combination with other herbicides, foliage spray
# Details in all cases: applied alone
# barnyardgrass (ECHCG) = assay type: in vivo, Echinochloa crus-galli; parameters: key: percentage herbicidal effect (observed)
# Excerpt: Colby's Equation was used to calculate the expected additive herbicidal effect of the mixtures of Compound 6 with Harmony® Extra (i.e. a 2:1 mixture by weight of thifensulfuron-methyl and tribenuron-methyl). Colby's Equation (Colby, S. R. “Calculating Synergistic and Antagonistic Responses of Herbicide Combinations,” Weeds, 15(1), pp 20-22 (1967)) calculates the expected additive effect of herbicidal mixtures, and for two active ingredients is of the form: Pa+b=Pa+Pb−(PaPb/100) wherein • Pa+b is the percentage effect of the mixture expected from additive contribution of the individual components, • Pa is the observed percentage effect of the first active ingredient at the same use rate as in the mixture, and • Pb is the observed percentage effect of the second active ingredient at the same use rate as in the mixture.
# (§1) Seeds of test plants consisting of barnyardgrass (ECHCG; Echinochloa crus-galli (L.) Beauv.), blackgrass (ALOMY; Alopecurus myosuroides Huds.), Surinam grass (BRADC; Urochloa decumbens (Staph) R. D. Webster, previously named Brachiaria decumbens Stapf), cocklebur (XANST, Xanthium strumarium L.), corn (ZEAMD, Zea mays L. cv. ‘Pioneer 33G26’), large crabgrass (DIGSA, Digitaria sanguinalis (L.) Scop.), giant foxtail (SETFA, Setaria faberi Herrm.), lambsquarters (CHEAL, Chenopodium album L.), morningglory (IPOCO, Ipomoea coccinea L.), pigweed (AMARE, Amaranthus retroflexus L.), velvetleaf (ABUTH, Abutilon theophrasti Medik.) wheat (TRZAS, Triticum aestivum L. cv. ‘Recital’) and wild oat (AVEFA, Avena fatua L.) were planted in Redi-Earth® planting medium (Scotts Company, 14111 Scottslawn Road, Marysville, Ohio 43041) comprising spaghnum peat moss and vermiculite. Seeds of small-seeded species were planted about 1 cm deep; larger seeds were planted about 2.5 cm deep. Plants were grown in a greenhouse using supplemental lighting to maintain a photoperiod of about 14 hours; daytime and nighttime temperatures were about 24-30° C. and 22-25° C., respectively. Balanced fertilizer was applied through the watering system. The plants were grown for 7 to 11 days so that at time of treatment the plants ranged in height from 2 to 18 cm (1- to 4-leaf stage). Treatments consisted of Compounds 2 and 6 (technical material), atrazine (90DF), terbacil (Sinbar® 80DF), hexazinone (Velpar® 75WG), diuron (Karmex® 80WP) and paraquat (Gramoxone® Extra, 37%) alone and in combination, suspended or dissolved in an aqueous solvent comprising a nonionic surfactant and applied as a foliage spray using a volume of 541 L/ha. Each treatment was triply replicated. […] Treated plants and controls were maintained in the greenhouse and watered as needed with care to not wet the foliage for the first 24 hours after treatment. The effects on the plants 15 days after treatment were visually compared to untreated controls. Plant response ratings, listed in Table J as the means of the thee replicates, are based on a scale of 0 to 100 where 0 is no effect and 100 is complete control. Also listed in Table J are the expected effects for the mixtures calculated using Colby's Equation.
# Surinam grass (BRADC) = assay type: in vivo, Urochloa decumbens; parameters: key: 0 = no effect, 100 = complete control
# How it was run: (§2)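 Seeds were sown in peat–vermiculite medium and grown 7–11 days under supplemental light. Seedlings then received compound alone or partner herbicide combinations as a foliage spray at 541 L/ha. After 15 days, response was scored visually on a 0–100 scale against untreated plants.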
# cocklebur (XANST) = assay type: in vivo, Xanthium strumarium; parameters: key: 0 = no effect, 100 = complete control
# Excerpt: as §1
# morningglory (IPOCO) = assay type: in vivo, Ipomoea coccinea; parameters: key: 0 = no effect, 100 = complete control
# How it was run: as §2
# wheat (TRZAS) = assay type: in vivo, Triticum aestivum; parameters: key: 0 = no effect, 100 = complete control
# How it was run: as §2
# wild oat (AVEFA) = assay type: in vivo, Avena fatua; parameters: key: 0 = no effect, 100 = complete control
# How it was run: as §2
smiles,measurement,setting,value
"CCNC(=O)c1ccc(F)c(NC(=O)c2cc(C(C)(C)C)nn2CC)c1 [Compound 2, 3-(1,1-dimethylethyl)-1-ethyl-N-[5-[(ethylamino)carbonyl]-2-fluorophenyl]-1H-pyrazole-5-carboxamide]",ECHCG Obsd.,barnyardgrass (ECHCG); 62 g a.i./ha,13
same,ECHCG Obsd.,barnyardgrass (ECHCG); 125 g a.i./ha,8
same,BRADC Obsd.,Surinam grass (BRADC); 62 g a.i./ha,8
same,BRADC Obsd.,Surinam grass (BRADC); 125 g a.i./ha,17
same,XANST Obsd.,cocklebur (XANST); 62 g a.i./ha,50
same,XANST Obsd.,cocklebur (XANST); 125 g a.i./ha,58
same,IPOCO Obsd.,morningglory (IPOCO); 62 g a.i./ha,17
same,IPOCO Obsd.,morningglory (IPOCO); 125 g a.i./ha,27
same,TRZAS Obsd.,wheat (TRZAS); 62 g a.i./ha,8
same,TRZAS Obsd.,wheat (TRZAS); 125 g a.i./ha,10
same,AVEFA Obsd.,wild oat (AVEFA); 62 g a.i./ha,8
same,AVEFA Obsd.,wild oat (AVEFA); 125 g a.i./ha,15
